From patent US10106558B2, “Azolobenzazine compounds, compositions comprising these compounds and their use for controlling invertebrate pests” (BASF SE, priority 2015, dated 2018)

Experiments:
Format in all cases: in vivo
[1] = test system: boll weevil (Anthonomus grandis); assay: Action on boll weevil, eggs on insect diet in 96-well microtiter plates; details: 120 h, 800 ppm, egg and larval mortality visually assessed after 5 days, read-out: mortality in comparison with untreated controls
Experimental: Example B3: Action on Boll Weevil (Anthonomus grandis)
For evaluating control of boll weevil (Anthonomus grandis) the test unit consisted of 96-well-microtiter plates containing an insect diet and 5-10 A. grandis eggs.
(§1) The compounds were formulated using a solution containing 75% v/v water and 25% v/v DMSO. Different concentrations of formulated compounds were sprayed onto the insect diet at 5 μl, using a custom built micro atomizer, at two replications.
After application, microtiter plates were incubated at about 25±1° C. and about 75±5% relative humidity for 5 days. Egg and larval mortality was then visually assessed.

[2] = test system: Silverleaf Whitefly (Bemisia argentifolii) (Adults); assay: Action on silverleaf whitefly adults, sprayed cotton plants; details: 72 h, 3 days after treatment, read-out: mortality in comparison with untreated controls
Experimental: Example B4: Action on Silverleaf Whitefly (Bemisia argentifolii) (Adults)
(§2) The active compounds were formulated by a Tecan liquid handler in 100% cyclohexanone as a 10,000 ppm solution supplied in tubes. The 10,000 ppm solution was serially diluted in 100% cyclohexanone to make interim solutions. These served as stock solutions for which final dilutions were made by the Tecan in 50% acetone:50% water (v/v) into 5 or 10 ml glass vials. A nonionic surfactant (Kinetic®) was included in the solution at a volume of 0.01% (v/v). The vials were then inserted into an automated electrostatic sprayer equipped with an atomizing nozzle for application to plants/insects.
Cotton plants at the cotyledon stage (one plant per pot) were sprayed by an automated electrostatic plant sprayer equipped with an atomizing spray nozzle. The plants were dried in the sprayer fume hood and then removed from the sprayer. Each pot was placed into a plastic cup and about 10 to 12 whitefly adults (approximately 3-5 days old) were introduced. The insects were collected using an aspirator and a nontoxic Tygon® tubing connected to a barrier pipette tip. The tip, containing the collected insects, was then gently inserted into the soil containing the treated plant, allowing insects to crawl out of the tip to reach the foliage for feeding. Cups were covered with a reusable screened lid. Test plants were maintained in a growth room at about 25° C. and about 20-40% relative humidity for 3 days, avoiding direct exposure to fluorescent light (24 hour photoperiod) to prevent trapping of heat inside the cup. Mortality was assessed 3 days after treatment, compared to untreated control plants.

[3] = test system: tobacco budworm (Heliothis virescens); assay: Action on tobacco budworm, eggs on insect diet in 96-well microtiter plates; details: 120 h, egg and larval mortality visually assessed after 5 days, read-out: mortality in comparison with untreated controls
Experimental: Example B6: Action on Tobacco Budworm (Heliothis virescens)
For evaluating control of tobacco budworm (Heliothis virescens) the test unit consisted of 96-well-microtiter plates containing an insect diet and 15-25 H. virescens eggs.
The compounds were formulated using a solution containing 75% v/v water and 25% v/v DMSO. Different concentrations of formulated compounds were sprayed onto the insect diet at 10 μl, using a custom built micro atomizer, at two replications.
After application, microtiter plates were incubated at about 28±1° C. and about 80±5% relative humidity for 5 days. Egg and larval mortality was then visually assessed.

[4] = test system: Diamond Back Moth (Plutella xylostella); assay: Action on diamond back moth, dipped cabbage leaves; details: 3rd instar larvae, 72 hours after treatment, read-out: mortality in comparison with untreated controls
Experimental: Example B9: Action on Diamond Back Moth (Plutella xylostella)
The active compound is dissolved at the desired concentration in a mixture of 1:1 (vol:vol) distilled water:acetone. Surfactant (Kinetic® HV) is added at a rate of 0.01% (vol/vol). The test solution is prepared at the day of use.
Leaves of cabbage were dipped in test solution and air-dried. Treated leaves were placed in petri dishes lined with moist filter paper and inoculated with ten 3rd instar larvae. Mortality was recorded 72 hours after treatment. Feeding damages were also recorded using a scale of 0-100%.

[5] = test system: Southern Armyworm (Spodoptera eridania), 2nd instar larvae; assay: Action on southern armyworm 2nd instar larvae, sprayed lima bean plants; details: 96 h, 4 days after treatment, read-out: mortality in comparison with untreated controls
Experimental: Example B10: Action on Southern Armyworm (Spodoptera eridania), 2nd Instar Larvae
as §2, with “into 10” for “into 5”, “or 20” for “or 10”
Lima bean plants (variety Sieva) were grown 2 plants to a pot and selected for treatment at the 1st true leaf stage. Test solutions were sprayed onto the foliage by an automated electrostatic plant sprayer equipped with an atomizing spray nozzle. The plants were dried in the sprayer fume hood and then removed from the sprayer. Each pot was placed into perforated plastic bags with a zip closure. About 10 to 11 armyworm larvae were placed into the bag and the bags zipped closed. Test plants were maintained in a growth room at about 25° C. and about 20-40% relative humidity for 4 days, avoiding direct exposure to fluorescent light (24 hour photoperiod) to prevent trapping of heat inside the bags. Mortality and reduced feeding were assessed 4 days after treatment, compared to untreated control plants.

[6] = test system: yellow fever mosquito (Aedes aegypti); assay: whole plant or invertebrate; details: 48 h, larval mortality visually assessed after 2 days, read-out: mortality in comparison with untreated controls
Experimental: Example B1: Action on Yellow Fever Mosquito (Aedes aegypti)
For evaluating control of yellow fever mosquito (Aedes aegypti) the test unit consisted of 96-well-microtiter plates containing 200 μl of tap water per well and 5-15 freshly hatched A. aegypti larvae.
The active compounds were formulated using a solution containing 75% (v/v) water and 25% (v/v) DMSO. Different concentrations of formulated compounds or mixtures were sprayed onto the insect diet at 2.5 μl, using a custom built micro atomizer, at two replications.
After application, microtiter plates were incubated at 28+1° C., 80+5% RH for 2 days. Larval mortality was then visually assessed.

[7] = test system: Orchid Thrips (Dichromothrips corbetti); assay: Action on orchid thrips, floral-immersion technique; details: adult thrips, 72 hours after treatment, read-out: mortality in comparison with untreated controls
Experimental: Example B2: Action on Orchid Thrips (Dichromothrips Corbetti)
Dichromothrips corbettiadults used for bioassay were obtained from a colony maintained continuously under laboratory conditions. For testing purposes, the test compound is diluted in a 1:1 mixture of acetone:water (vol:vol), plus Kinetic® HV at a rate of 0.01% v/v.
Thrips potency of each compound was evaluated by using a floral-immersion technique. All petals of individual, intact orchid flowers were dipped into treatment solution and allowed to dry in Petri dishes. Treated petals were placed into individual re-sealable plastic along with about 20 adult thrips. All test arenas were held under continuous light and a temperature of about 28° C. for duration of the assay. After 3 days, the numbers of live thrips were counted on each petal. The percent mortality was recorded 72 hours after treatment.

[8] = test system: Mediterranean fruitfly (Ceratitis capitata); assay: Action on Mediterranean fruitfly, eggs on insect diet in microtiter plates; details: 120 h, egg and larval mortality visually assessed after 5 days, read-out: mortality in comparison with untreated controls
Experimental: Example B5: Action on Mediterranean Fruitfly (Ceratitis capitata)
For evaluating control of Mediterranean fruitfly (Ceratitis capitata) the test unit consisted of microtiter plates containing an insect diet and 50-80 C. capitata eggs.
as §1
After application, microtiter plates were incubated at about […] and about 80+5% relative humidity for 5 days. Egg and larval mortality was then visually assessed.

CC(C)c1ccccc1NC(=S)N/N=C/c1ccc2c(ccc3c2ncn3-c2ccc(OC(F)(F)F)cc2)n1 [Compound C-3, 1-(2-isopropylphenyl)-3-[(E)-[3-[4-(trifluoromethoxy)phenyl]imidazo[4,5-f]quinolin-7-yl]methyleneamino]thiourea]
≥ 75%: mortality at 800 ppm [1] | mortality at 500 ppm [2] | mortality at 800 ppm [3] | mortality at 500 ppm [4] | mortality at 500 ppm [5]

CC(C)c1ccccc1N1C(=O)CS/C1=N\N=C\c1ccc2c(ccc3c2ncn3-c2ccc(OC(F)(F)F)cc2)n1 [Compound C-4, (2Z)-3-(2-isopropylphenyl)-2-[(E)-[3-[4-(trifluoromethoxy)phenyl]imidazo[4,5-f]quinolin-7-yl]methylenehydrazono]thiazolidin-4-one]
≥ 75%: mortality at 800 ppm [6] | mortality at 500 ppm [7] | mortality at 800 ppm [1] | mortality at 500 ppm [2] | mortality at 800 ppm [8] | mortality at 800 ppm [3] | mortality at 500 ppm [4] | mortality at 500 ppm [5]

CC(C)c1ccccc1/N=C1\SCC(=O)N1/N=C/c1ccc2c(ccc3c2ncn3-c2ccc(OC(F)(F)F)cc2)n1 [Compound C-8, (2Z)-2-(2-isopropylphenyl)imino-3-[(E)-[3-[4-(trifluoromethoxy)phenyl]imidazo[4,5-f]quinolin-7-yl]methyleneamino]thiazolidin-4-one]
≥ 75%: mortality at 800 ppm [6] | mortality at 500 ppm [7] | mortality at 800 ppm [1] | mortality at 500 ppm [2] | mortality at 800 ppm [8] | mortality at 800 ppm [3] | mortality at 500 ppm [4] | mortality at 500 ppm [5]

CC(C)c1ccccc1/N=C1\SCC(=O)N1/N=C/c1cnc2c(ccc3c2ncn3-c2ccc(OC(F)(F)F)cc2)c1 [Compound C-16, (2Z)-2-(2-isopropylphenyl)imino-3-[(E)-[3-[4-(trifluoromethoxy)phenyl]imidazo[4,5-h]quinolin-7-yl]methyleneamino]thiazolidin-4-one]
≥ 75%: mortality at 800 ppm [6] | mortality at 500 ppm [7] | mortality at 800 ppm [1] | mortality at 500 ppm [2] | mortality at 800 ppm [8] | mortality at 800 ppm [3] | mortality at 500 ppm [4] | mortality at 500 ppm [5]

CC(C)c1ccccc1N1C(=O)CS/C1=N\N=C\c1cnc2c(ccc3c2ncn3-c2ccc(OC(F)(F)F)cc2)c1 [Compound C-17, (2Z)-3-(2-isopropylphenyl)-2-[(E)-[3-[4-(trifluoromethoxy)phenyl]imidazo[4,5-h]quinolin-7-yl]methylenehydrazono]thiazolidin-4-one]
≥ 75%: mortality at 800 ppm [6] | mortality at 500 ppm [7] | mortality at 800 ppm [1] | mortality at 500 ppm [2] | mortality at 800 ppm [8] | mortality at 800 ppm [3] | mortality at 500 ppm [4]

CC(C)c1ccccc1NC(=S)N/N=C/c1ccc2c(ccc3c(-c4ccc(OC(F)(F)F)cc4)n(C)nc32)n1 [Compound C-19, 1-(2-isopropylphenyl)-3-[(E)-[2-methyl-3-[4-(trifluoromethoxy)phenyl]pyrazolo[3,4-f]quinolin-7-yl]methyleneamino]thiourea]
≥ 75%: mortality at 800 ppm [6] | mortality at 800 ppm [1] | mortality at 500 ppm [2] | mortality at 800 ppm [8] | mortality at 800 ppm [3] | mortality at 500 ppm [5]

CC(C)c1ccccc1N1C(=O)CS/C1=N\N=C\c1ccc2c(ccc3c(-c4ccc(OC(F)(F)F)cc4)n(C)nc32)n1 [Compound C-20, (2Z)-3-(2-isopropylphenyl)-2-[(E)-[2-methyl-3-[4-(trifluoromethoxy)phenyl]pyrazolo[3,4-f]quinolin-7-yl]methylenehydrazono]thiazolidin-4-one]
≥ 75%: mortality at 800 ppm [6] | mortality at 800 ppm [1] | mortality at 500 ppm [2] | mortality at 800 ppm [8] | mortality at 800 ppm [3] | mortality at 500 ppm [4] | mortality at 500 ppm [5]

Cc1cccc(C)c1N1C(=O)CS/C1=N\N=C\c1cc2ccc3c(ncn3-c3ccc(OC(F)(F)F)cc3)c2cn1 [Compound C-27, (2Z)-3-(2,6-dimethylphenyl)-2-[(E)-[3-[4-(trifluoromethoxy)phenyl]imidazo[4,5-h]isoquinolin-7-yl]methylenehydrazono]thiazolidin-4-one]
≥ 75%: mortality at 800 ppm [6] | mortality at 500 ppm [7] | mortality at 800 ppm [1] | mortality at 800 ppm [8] | mortality at 800 ppm [3] | mortality at 500 ppm [4] | mortality at 500 ppm [5]

Cc1cccc(C)c1/N=C1\SCC(=O)N1/N=C/c1cc2ccc3c(ncn3-c3ccc(OC(F)(F)F)cc3)c2cn1 [Compound C-29, (2Z)-2-(2,6-dimethylphenyl)imino-3-[(E)-[3-[4-(trifluoromethoxy)phenyl]imidazo[4,5-h]isoquinolin-7-yl]methyleneamino]thiazolidin-4-one]
≥ 75%: mortality at 800 ppm [6] | mortality at 800 ppm [1] | mortality at 500 ppm [2] | mortality at 800 ppm [8] | mortality at 800 ppm [3] | mortality at 500 ppm [4] | mortality at 500 ppm [5]
